Data on ten compounds can be found in US6399782B1, “Benzimidazole inhibitors of fructose 1,6-bisphosphatase” (Metabasis Therapeutics, Inc., priority 1997, dated 2002).

Data set [1] is described as follows: Estimation of the oral bioavailability of prodrugs of phosphonic acids. The format is in vivo. The settings on record: rat; for % Oral bioavailability: prodrug by oral gavage approximately 20 or 40 mg/kg parent equivalents, urinary recovery of parent vs i.v. parent. On the procedure: Prodrugs were dissolved in 10% ethanol/90% polyethylene glycol (mw 400) and administered by oral gavage at doses of approximately 20 or 40 mg/kg parent compound equivalents to 6-hour fasted, Sprague Dawley rats (220-240 g). The rats were subsequently placed in metabolic cages and urine was collected for 24 hours. The quantity of parent compound excreted into urine was determined by HPLC analysis. An ODS column eluted with a gradient from potassium phosphate buffer, pH 5.5 to acetonitrile was employed for these measurements. Detection was at 310-325 nm. […] Parent compounds were typically dissolved in dimethyl sulfoxide, and administered via the tail vein in animals that were briefly anesthetized with halothane.

Data set [2] has as its target T1, human liver FBPase (Homo sapiens, UniProt P09467).
T1 construct: made in house; host or cells: E. coli BL21
T1 sequence (P09467 2-338 limits assumed): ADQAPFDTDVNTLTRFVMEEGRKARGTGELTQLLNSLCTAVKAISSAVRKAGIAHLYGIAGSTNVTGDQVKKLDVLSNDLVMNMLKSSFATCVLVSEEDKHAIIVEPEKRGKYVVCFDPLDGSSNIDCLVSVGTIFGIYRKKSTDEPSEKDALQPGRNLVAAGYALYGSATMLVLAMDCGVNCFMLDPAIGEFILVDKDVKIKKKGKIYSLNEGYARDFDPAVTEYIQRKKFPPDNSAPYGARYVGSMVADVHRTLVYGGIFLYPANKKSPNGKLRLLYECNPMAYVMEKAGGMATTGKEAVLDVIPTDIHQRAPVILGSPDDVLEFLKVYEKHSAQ
The experiment in a line: Inhibition of human liver FBPase. The data set is classed as biochemical. The conditions noted are these: for inhibition of human liver FBPase activity (FIG. 2): result in words.
Description: Enzymatic activity was measured spectrophotometrically in reactions that coupled the formation of product (fructose 6-phosphate) to the reduction of dimethylthiazoldiphenyltetrazolium bromide (MTT) via NADP and phenazine methosulfate (PMS), using phosphoglucose isomerase and glucose 6-phosphate dehydrogenase as the coupling enzymes. Reaction mixtures (200 μl) were made up in 96-well microtitre plates, and consisted of 50 mM Tris-HCl, pH 7.4, 100 mM KCl, 5 mM EGTA, 2 mM MgCl2, 0.2 mM NADP, 1 mg/ml BSA, 1 mM MTT, 0.6 mM PMS, 1 unit/mL phosphoglucose isomerase, 2 units/mL glucose 6-phosphate dehydrogenase, and 0.150 mM substrate (fructose 1,6-bisphosphate). Inhibitor concentrations were varied from 0.01 μM to 10 μM. Reactions were started by the addition of 0.002 units of pure hlFBPase and were monitored for 7 minutes at 590 nm in a Molecular Devices Plate Reader (37° C.).

In data set [3] the target is T2, mouse liver FBPase (Mus musculus, UniProt Q9QXD6).
T2 construct: This partially purified fraction was used for enzyme assays; from tissue; host or cells: mouse liver, 45-75% ammonium sulfate fraction
T2 sequence (Q9QXD6 2-338 limits assumed): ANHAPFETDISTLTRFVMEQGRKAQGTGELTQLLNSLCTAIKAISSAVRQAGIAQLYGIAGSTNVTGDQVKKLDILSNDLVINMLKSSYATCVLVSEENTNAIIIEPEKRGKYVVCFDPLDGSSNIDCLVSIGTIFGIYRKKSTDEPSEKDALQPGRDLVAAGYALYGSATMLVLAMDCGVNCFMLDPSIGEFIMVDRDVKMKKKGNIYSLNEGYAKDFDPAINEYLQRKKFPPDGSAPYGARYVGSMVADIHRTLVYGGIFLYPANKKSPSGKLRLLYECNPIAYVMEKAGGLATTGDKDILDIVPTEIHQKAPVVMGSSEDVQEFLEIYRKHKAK
Description: Inhibition of mouse liver FBPase. The conditions noted are these: partially purified mouse liver fraction. The format is biochemical. The method, then: Enzymatic activity was measured spectrophotometrically in reactions that coupled the formation of product (fructose 6-phosphate) to the reduction of dimethylthiazoldiphenyltetrazolium bromide (MTT) via NADP and phenazine methosulfate (PMS), using phosphoglucose isomerase and glucose 6-phosphate dehydrogenase as the coupling enzymes. Reaction mixtures (200 μl) were made up in 96-well microtitre plates, and consisted of 50 mM Tris-HCl, pH 7.4, 100 mM KCl, 5 mM EGTA, 2 mM MgCl2, 0.2 mM NADP, 1 mg/ml BSA, 1 mM MTT, 0.6 mM PMS, 1 unit/mL phosphoglucose isomerase, 2 units/mL glucose 6-phosphate dehydrogenase, and 0.150 mM substrate (fructose 1,6-bisphosphate). Inhibitor concentrations were varied from 0.01 μM to 10 μM.
Mouse liver FBPase was obtained by homogenizing freshly isolated mouse liver in 100 mM Tris-HCl buffer, pH 7.4, containing 1 mM EGTA, and 10% glycerol. […] This fraction was redissolved in the homogenization buffer and desalted on a PD-10 gel filtration column (Biorad) eluted with same. This partially purified fraction was used for enzyme assays. Both rat liver and mouse liver FBPase were assayed as described for human liver FBPase.

Data set [4] deals with rat hepatocytes. The experiment in a line: Inhibition of gluconeogenesis in rat hepatocytes. The data set is classed as cell-based. On the procedure: Hepatocytes were prepared from overnight fasted Sprague-Dawley rats (250-300 g) according to the procedure of Berry and Friend (Berry, M. N., Friend, D. S., 1969, J. Cell. Biol. 43, 506-520) as modified by Groen (Groen, A. K., Sips, H. J., Vervoorn, R. C., Tager, J. M., 1982, Eur. J. Biochem. 122, 87-93). Hepatocytes (75 mg wet weight/mL) were incubated in 1 ml Krebs-bicarbonate buffer containing 10 mM Lactate, 1 mM pyruvate, 1 mg/mL BSA, and test compound concentrations from 1 to 500 μM. Incubations were carried out in a 95% oxygen, 5% carbon dioxide atmosphere in closed, 50-mL Falcon tubes submerged in a rapidly shaking water bath (37° C.). After 1 hour, an aliquot (0.25 mL) was removed, transferred to an Eppendorf tube and centrifuged. 50 μL of supernatant was then assayed for glucose content using a Sigma Glucose Oxidase kit as per the manufacturer's instructions.

Data set [5] has as its system fasted Sprague Dawley rats. The experiment in a line: Blood glucose lowering in fasted rats. The format is in vivo, rat. The conditions noted are these: 20 mg/kg intraperitoneally, 18 hours fasted Sprague Dawley rats, one hour post injection. On the procedure:
Sprague Dawley rats (250-300 g) were fasted for 18 hours and then dosed intraperitoneally with 20 mg/kg of compounds 12.53, 12.61, or 12.64. The vehicle used for drug administration was 50 mM sodium bicarbonate. Blood samples were obtained from the tail vein of conscious animals just prior to injection and one hour post injection. Blood glucose was measured using a HemoCue Inc. glucose analyzer according to the instructions of the manufacturer.

Data set [6] addresses T3, hlFBPase (Homo sapiens, UniProt P09467).
T3 construct: made in house; host or cells: E. coli BL21
T3 sequence (P09467 2-338 limits assumed): T1 sequence (P09467 2-338 limits assumed)
Description: AMP site binding (displacement of radiolabeled AMP). On the procedure: To determine whether compounds bind to the allosteric AMP binding site of hlFBPase, the enzyme was incubated with radiolabeled AMP in the presence of a range of test compound concentrations. The reaction mixtures consisted of […] ^3H-AMP (54 mCi/mmol) and […] test compound in 25 mM Tris-HCl, pH 7.4, 100 mM KCl and 1 mM MgCl2. 1.45 mg of homogeneous FBPase (±1 nmole) was added last. After a 1 minute incubation, AMP bound to FBPase was separated from unbound AMP by means of a centrifugal ultrafiltration unit (“Ultrafree-MC”, Millipore) used according to the instructions of the manufacturer. The radioactivity in aliquots (100 μL) of the upper compartment of the unit (the retentate, which contrains enzyme and label) and the lower compartment (the filtrate, which contains unbound label) were quantified using a Beckman liquid scintillation counter. The amount of AMP bound to the enzyme was estimated by comparing the counts in the filtrate (the unbound label) to the total counts in the retentate.

“4-Amino-5-fluoro-7-bromo-1-isobutyl-2-(1-methoxymethyl-3-bispivaloyloxymethylphosphonate)benzimidazole [Compound 18.7]”: the “% Oral bioavailability” value in data set [1] is 6.9%. As for `CCc1ccc2c(nc(-c3ccc(P(=O)(O)O)o3)n2CC(C)C)c1N` [Compound 12.52, 4-Amino-5-ethyl-1-isobutyl-2-(2-phosphono-5-furanyl)benzimidazole], the melting point lay within 220 to 225 °C. In addition, in data set [2], the “inhibition of human liver FBPase activity (FIG. 2)” value is given as “inhibit human liver FBPase activity in vitro in a dose dependent manner”. Moreover, the IC50 in data set [3] is 0.78 µM. Compound `CC(C)Cn1c(-c2ccc(P(=O)(O)O)o2)nc2c(N)c(F)ccc21` [Compound 12.53, 4-Amino-5-fluoro-1-isobutyl-2-(2-phosphono-5-furanyl)benzimidazole] yielded a melting point of 230 to 235 °C. The “inhibition of human liver FBPase activity (FIG. 2)” value in data set [2] is “inhibit human liver FBPase activity in vitro in a dose dependent manner”. In addition, the IC50 in data set [4] (Hepatocyte, glucose production from lactate/pyruvate, isolated rat hepatocytes, 1 hour) stood at 2.4 µM. Further, the “inhibition of glucose production in rat hepatocytes (FIG. 4)” value in data set [4] (result in words) is on record as “inhibit glucose production in vitro in rat hepatocytes”. In addition, the blood glucose lowering in data set [5] is on record as 55±14%.

Regarding `CC(C)Cn1c(-c2ccc(P3(=O)OCC(CO)CO3)o2)nc2ccc(Cl)cc21` (stereo not shown) [Compound 31.13, 6-Chloro-1-isobutyl-2-{5-[2-(hydroxymethyl)-propan-1,3-yl]phosphono-2-furanyl}benzimidazole], in data set [1], the “% Oral bioavailability” value is given as 10.9%. Still for that read-out and setting: the result for `CC(=O)OCC1COP(=O)(c2ccc(-c3nc4ccc(Cl)cc4n3CC(C)C)o2)OC1` (stereo not shown) [Compound 31.14, 6-Chloro-1-isobutyl-2-{5-[2-(acetoxymethyl)-propan-1,3-yl]phosphono-2-furanyl}benzimidazole] reads 12.5%; that for `COC(=O)OCC1COP(=O)(c2ccc(-c3nc4ccc(Cl)cc4n3CC(C)C)o2)OC1` (stereo not shown) [Compound 31.15, 6-Chloro-1-isobutyl-2-{5-[2-(methoxycarbonyloxymethyl)-propan-1,3-yl]phosphono-2-furanyl}benzimidazole], 14.1%.

As for `CC(C)C(=O)OCOP(=O)(OCOC(=O)C(C)C)c1ccc(-c2nc3c(N)ncnc3n2CC(C)(C)C)o1` [Compound A], in data set [1] (oral approximately 20 mg/kg), the “oral bioavailability (calculated 6.2/76.8)” value is “approximately 8%”. The “% of oral dose recovered in urine” value in data set [1] (oral approximately 20 mg/kg, parent compound in 24 hour urine) was 6.2%. Turning to `CC(C)(C)Cn1c(-c2ccc(P(=O)(O)O)o2)nc2c(N)ncnc21` [Compound B], the “% of intravenous dose recovered in urine” value in data set [1] (intravenous approximately 10 mg/kg, 24 hour urine) is reported as 76.8%. As to `CC(C)(C)Cn1c(-c2ccc(P(=O)(OCOC(=O)C(C)(C)C)OCOC(=O)C(C)(C)C)o2)nc2c(N)ncnc21` [Compound C], the “% Oral bioavailability” value in data set [1] is given as 5.3%. `NC(=O)c1ncn([C@@H]2O[C@H](COP(=O)(O)O)[C@@H](O)[C@H]2O)c1N` [ZMP, 5-aminoimidazole-4-carboxamide riboside monophosphate, reference compound]: in data set [2] (values in text, read-out: hlFBPase IC50), the IC50 was found to be 12 µM. The EC50 in data set [6] (displacement of 3H-AMP from hlFBPase, read-out: ED50 for AMP displacement) is 250 µM. Moreover, in data set [6] (result in words), the “displacement of AMP from human liver FBPase (FIG. 3)” value was “displaced AMP from human liver FBPase in a dose dependent manner”.
